The assay has as its system Rab10 pThr73. In words: Rab10 Thr73 dephosphorylation (immunoblot) in LRRK2^G2019S MEFs. The class given is cell-based. The settings on record: Mus musculus, read-out: pRab10 inhibited in LRRK2^G2019S MEFs. For orientation: A western blot detects proteins with antibodies after separation by electrophoresis.

Read-outs that look alike come from different tables or passages of the source.

On to `CNc1nc(Nc2ccc(C(=O)N3CCN(C[C@H]4CC[C@@H](CSC(C)(C)[C@H](NC(=O)C5(F)CC5)C(=O)N5C[C@H](O)CC5C(=O)NCc5ccc(-c6scnc6C)cc5)CC4)CC3)cc2OC)ncc1Cl` (stereo partly shown) [XL01134], for which the inhibition at 0.033 µM reads like this: (33 nM/4 h treatment) 0 to 70%; (33 nM/24 h treatment) 0 to 90%.
Taken in the same sequence, the figures for `CNc1nc(Nc2ccc(C(=O)N3CCN(CCOCCOCCSC(C)(C)[C@H](NC(=O)C4(F)CC4)C(=O)N4C[C@H](O)C[C@H]4C(=O)NCc4ccc(-c5scnc5C)cc4)CC3)cc2OC)ncc1Cl` [SD75, (2S,4R)-1-((R)-3-((2-(2-(2-(4-(4-((5-chloro-4-(methylamino)pyrimidin-2-yl)amino)-3-methoxybenzoyl)piperazin-1-yl)ethoxy)ethoxy)ethyl)thio)-2-(1-fluorocyclopropane-1-carboxamido)-3-methylbutanoyl)-4-hydroxy-N-(4-(4-methylthiazol-5-yl)benzyl)pyrrolidine-2-carboxamide] were 0 to 60% and 0 to 70%.

Values taken from US20260001875A1, “AMINOPYRIMIDINYL DERIVATIVES FOR THE TREATMENT OF PARKINSON'S DISEASE” (UNIVERSITY OF DUNDEE, priority 2022, published 2026).
